In paper PMC7083880 (Nature Communications, 2020):
Several values for one entry are separate records, joined by “and”; a condition that tells them apart may be missing. Equal values may be shown once.

Columns and labels:
[1] = test system: firefly luciferase (Fluc) gene with UGA nonsense codon at position 109 in HeLa cells; experiment: Firefly luciferase readthrough assay, UGA PTC construct; assay type: cell-based, human
Text: To identify the compounds responsible for this activity, a semi-preparative HPLC fractionation protocol was used. […] (Fig. 1b). DMSO and G418 were used, respectively, as a negative and a positive control.
The value of each luciferase measurement is presented in the Source Data File. All data shown in c, d are representative of two independent experiments. Source data are provided as a Source Data file.
HeLa cells were transfected with the FLuc-int-UGA construct using lipofectamine 3000 (Life technologies) according to the manufacturer’s recommendations. […] Steadylite plus luciferase substrate (Perkin Elmer, Waltham, MA, USA) was then added to each well before measuring the visible light from each well for 10 s with a Tristar luminometer (Berthold technologies, Versailles, France). The plate was read twice and the reported values are averages of the two reads.

FTSJ1 = target: T1, FTSJ1 (Homo sapiens, UniProt Q9UET6); experiment: UGA readthrough luciferase assay with FTSJ1 overexpression; assay type: cell-based
T1 construct: host or cells: HeLa
T1 sequence (Q9UET6 1-329): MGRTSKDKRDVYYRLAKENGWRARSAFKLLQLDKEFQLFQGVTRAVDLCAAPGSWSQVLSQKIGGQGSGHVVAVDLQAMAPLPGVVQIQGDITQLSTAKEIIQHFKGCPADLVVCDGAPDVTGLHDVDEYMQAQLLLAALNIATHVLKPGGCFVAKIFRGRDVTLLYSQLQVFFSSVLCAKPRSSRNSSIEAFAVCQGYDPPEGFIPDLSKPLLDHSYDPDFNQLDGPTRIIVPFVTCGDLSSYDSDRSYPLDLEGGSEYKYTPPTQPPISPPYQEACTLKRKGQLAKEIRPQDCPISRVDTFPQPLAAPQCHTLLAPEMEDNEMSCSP
Text: Firefly luciferase from HEK293FT cells transfected with the Fluc-int-UGA construct was immunoprecipitated and digested with trypsin. The MS/MS spectrum of the peptide containing the PTC position and the sequence determination are shown. The upper red and blue sequences indicate the amino acids validated, respectively, by detection of Nter and Cter peptide fragments (b and y ion series). Peptide fragments y6 and y7 clearly identify tryptophan (W) at the PTC position. The black peaks correspond to non-attributed mass-to-charge ratio (m/z) values. […] Readthrough efficiency was determined by measuring luciferase activity in HeLa cells co-transfected with the firefly luciferase construct described in Fig. 1b and with increasing amounts of an expression vector for either FTSJ1 or CTU1 (0.5, 1, or 2 µg). The empty expression vector (E.v.) was used as control. […] The experiment was performed twice and the results of both experiments (Exp1 and Exp2) are shown. c Western blot analysis of FTSJ1 and CTU1. d 2′-O-methylation analysis of tRNA^Trp, tRNA^SER, and tRNA^GLN by RiboMethSeq. […] A molecular weight marker is indicated to the left of each gel. p-values (p) were calculated using Student’s t-test. Source data are provided as a Source Data file.
Among the enzymes modifying tRNAs liable to recognize a stop codon by extended wobbling, human FTSJ1 (TRM7 in yeast) exclusively modifies tRNAs involved in UGA readthrough. In addition to other tRNA targets, FTSJ1 methylates the cytosine at position 34 of tRNA^Trp. Inhibition of this modification could increase the capacity of tRNA^Trp to misdecode and recognize the UGA stop codon. […] FTSJ1 and CTU1 overexpression were assessed by western-blot analysis (Fig. 5c).

Nc1nc(N)c2[nH]cnc2n1 [DAP, 2,6-diaminopurine]
Luciferase activity, UGA PTC, dose response ([1]; 0.39µM, Exp. 1): 1186.95
Luciferase activity, UGA PTC, dose response ([1]; 0.39µM, Exp. 2): 737.25
Luciferase activity, UGA PTC, dose response ([1]; 0.39µM, average): 962±318 and 962.101
Luciferase activity, UGA PTC, dose response ([1]; 0.78µM, Exp. 1): 1503.98
Luciferase activity, UGA PTC, dose response ([1]; 0.78µM, Exp. 2): 977.5
Luciferase activity, UGA PTC, dose response ([1]; 0.78µM, average): 1241±372 and 1240.74
Luciferase activity, UGA PTC, dose response ([1]; 1.56µM, Exp. 1): 2085.73
Luciferase activity, UGA PTC, dose response ([1]; 1.56µM, Exp. 2): 1374.25
Luciferase activity, UGA PTC, dose response ([1]; 1.56µM, average): 1730±503 and 1729.99
Luciferase activity, UGA PTC, dose response ([1]; 6.25µM, Exp. 1): 7245.46
Luciferase activity, UGA PTC, dose response ([1]; 6.25µM, Exp. 2): 4897.5
Luciferase activity, UGA PTC, dose response ([1]; 6.25µM, average): 6071±1660 and 6071.48
Luciferase activity, UGA PTC, dose response ([1]; 25µM, Exp. 1): 48084
Luciferase activity, UGA PTC, dose response ([1]; 25µM, Exp. 2): 33252.2
Luciferase activity, UGA PTC, dose response ([1]; 25µM, average): 40668±10487 and 40668.1
Luciferase activity, UGA PTC, dose response ([1]; 100µM, Exp. 1): 351175
Luciferase activity, UGA PTC, dose response ([1]; 100µM, Exp. 2): 246890
Luciferase activity, UGA PTC, dose response ([1]; 100µM, average): 299032±73740 and 299033
Luciferase activity, UGA PTC, dose response ([1]; 300µM, Exp. 1): 257964
Luciferase activity, UGA PTC, dose response ([1]; 300µM, Exp. 2): 190894
Luciferase activity, UGA PTC, dose response ([1]; 300µM, average): 224429±47425 and 224429
Luciferase activity, UGA PTC, dose response ([1]; 600µM, Exp. 1): 134395
Luciferase activity, UGA PTC, dose response ([1]; 600µM, Exp. 2): 97365.8
Luciferase activity, UGA PTC, dose response ([1]; 600µM, average): 115880±26184 and 115881
Luciferase activity, UGA PTC ([1]; DAP 3.75µM, average of 2 experiments): 20599.75±1015 and 20599.8
Luciferase activity, UGA PTC ([1]; DAP 3.75µM, experiment 1): 19882
Luciferase activity, UGA PTC ([1]; DAP 3.75µM, experiment 2): 21317.5
Luciferase activity, UGA PTC ([1]; DAP 37.5µM, average of 2 experiments): 35939.75±1176 and 35939.8
Luciferase activity, UGA PTC ([1]; DAP 37.5µM, experiment 1): 36771
Luciferase activity, UGA PTC ([1]; DAP 37.5µM, experiment 2): 35108.5
Concentration of maximal efficacy, UGA readthrough (luciferase) ([1]; Fig. 1D, peer review file): 100 µM
Correction of the UGA nonsense mutation (luciferase activity), in words ([1]; Fig. 1c): exclusive correction of the UGA nonsense mutation
EC50 ([1]; Homo sapiens, Fig. 1D, authors' reply in peer review file, removed from final text): ~50 µM
luciferase activity, average (FTSJ1; 0.5µg FTSJ1, 0.39µM): 904.125
luciferase activity, exp1 (FTSJ1; 0.5µg FTSJ1, 0.39µM): 632.5
luciferase activity, exp1*1,5 (FTSJ1; 0.5µg FTSJ1, 0.39µM): 948.75
luciferase activity, exp2 (FTSJ1; 0.5µg FTSJ1, 0.39µM): 859.5
luciferase activity, average (FTSJ1; 0.5µg FTSJ1, 0.78µM): 1247.62
luciferase activity, exp1 (FTSJ1; 0.5µg FTSJ1, 0.78µM): 776.5
luciferase activity, exp1*1,5 (FTSJ1; 0.5µg FTSJ1, 0.78µM): 1164.75
luciferase activity, exp2 (FTSJ1; 0.5µg FTSJ1, 0.78µM): 1330.5
luciferase activity, average (FTSJ1; 0.5µg FTSJ1, 1.56µM): 1901
luciferase activity, exp1 (FTSJ1; 0.5µg FTSJ1, 1.56µM): 1287
luciferase activity, exp1*1,5 (FTSJ1; 0.5µg FTSJ1, 1.56µM): 1930.5
luciferase activity, exp2 (FTSJ1; 0.5µg FTSJ1, 1.56µM): 1871.5
luciferase activity, average (FTSJ1; 0.5µg FTSJ1, 6.25µM): 9598.75
luciferase activity, exp1 (FTSJ1; 0.5µg FTSJ1, 6.25µM): 3517
luciferase activity, exp1*1,5 (FTSJ1; 0.5µg FTSJ1, 6.25µM): 5275.5
luciferase activity, exp2 (FTSJ1; 0.5µg FTSJ1, 6.25µM): 13922
luciferase activity, average (FTSJ1; 0.5µg FTSJ1, 25µM): 34831.4
luciferase activity, exp1 (FTSJ1; 0.5µg FTSJ1, 25µM): 13760.5
luciferase activity, exp1*1,5 (FTSJ1; 0.5µg FTSJ1, 25µM): 20640.8
luciferase activity, exp2 (FTSJ1; 0.5µg FTSJ1, 25µM): 49022
luciferase activity, average (FTSJ1; 0.5µg FTSJ1, 100µM): 81250
luciferase activity, exp1 (FTSJ1; 0.5µg FTSJ1, 100µM): 48276
luciferase activity, exp1*1,5 (FTSJ1; 0.5µg FTSJ1, 100µM): 72414
luciferase activity, exp2 (FTSJ1; 0.5µg FTSJ1, 100µM): 90086
luciferase activity, average (FTSJ1; 0.5µg FTSJ1, 300µM): 102352
luciferase activity, exp1 (FTSJ1; 0.5µg FTSJ1, 300µM): 48428.5
luciferase activity, exp1*1,5 (FTSJ1; 0.5µg FTSJ1, 300µM): 72642.8
luciferase activity, exp2 (FTSJ1; 0.5µg FTSJ1, 300µM): 132062
luciferase activity, average (FTSJ1; 0.5µg FTSJ1, 600µM): 91333.2
luciferase activity, exp1 (FTSJ1; 0.5µg FTSJ1, 600µM): 34760
luciferase activity, exp1*1,5 (FTSJ1; 0.5µg FTSJ1, 600µM): 52140
luciferase activity, exp2 (FTSJ1; 0.5µg FTSJ1, 600µM): 130526
